Test results: patent US20060014812A1, “Use of estrogen related receptor-modulating aryl ethers” (priority 2004, published 2006)

Legend:
[1] = target: T1, ligand binding domain of ERR-α (aa 183-424) (Homo sapiens, UniProt P11474); test: ThermoFluor thermal-shift binding affinity screen against ERR-α ligand binding domain; conditions: 100 μM test compound, 0.1 mg/mL ERR-α, pH 7.6, Kd estimated from melting temperature shift at reference temperature, read-out: TF Kd
T1 construct: His tag (N); thrombin cleavage site (N); made in house; host or cells: E. coli BL21(DE3+)
T1 sequence (P11474 183-423 limits assumed): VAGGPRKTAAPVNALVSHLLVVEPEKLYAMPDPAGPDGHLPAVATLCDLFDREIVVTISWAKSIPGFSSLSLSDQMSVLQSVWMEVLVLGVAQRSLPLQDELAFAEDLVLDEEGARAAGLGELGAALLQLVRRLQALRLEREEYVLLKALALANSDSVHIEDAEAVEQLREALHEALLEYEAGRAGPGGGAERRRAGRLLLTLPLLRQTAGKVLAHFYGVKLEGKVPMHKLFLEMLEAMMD
Description: The ligand binding domain of ERR-α (aa 183-424) was subcloned in frame with the N-terminal His tag and the cleavable thrombin site in pET28. The protein was expressed in BL21(DE3^+) following induction with 100 μM IPTG at 16° C. Cells were harvested after 16 hours (h) of induction and lysed in 20 mM Tris pH 7.5, 500 mM NaCl, 5 mM imidazole, 5% glycerol, protease inhibitor cocktail (-EDTA) and 2 mM β-ME. Insoluble material was removed by centrifugation at 40,000×g for 1 hr. Clarified homogenate was applied on a Ni-NTA column and after applying an imidazole gradient the protein was eluted. The protein was further purified on size exclusion chromatography to an apparent homogeneity of 95% as judged by SDS-PAGE chromatography.
Binding affinities of compounds were determined by screening against the ligand binding domain of ERR-α using ThermoFluor® technology (U.S. Pat. No. 6,020,141 and U.S. Pat. No. 6,036,920, and Journal of Biomolecular Screening 6 (6), […], pgs 429-440). Assay plates were prepared by dispensing 2 μL of a protein-dye solution and 2 μL of the test compound in a 384-well plate. The conditions used in the screen were: 0.1 mg/mL ERR-α, 25 mM Na-phosphate buffer at pH 7.6, 200 mM NaCl, 10% glycerol, 16 μM ANS, 2% DMSO and the final concentration of test compound was 100 μM. Finally 1 μL of mineral oil was dispensed on top to prevent evaporation during the high throughput screen (HTS). ThermoFluor® is an HTS assay that measures protein unfolding based on fluorescence detection of the denatured form of the protein. The reporter for the protein unfolding event is the environmentally sensitive dye ANS that is incorporated in the screening buffer. During a typical experiment the 384-well plate is heated at a ramping rate of 1° C./min and the thermal unfolding of the protein is monitored at 1° C. intervals by measuring fluorescence changes detected through a CCD camera. Captured images are integrated and a melting curve is generated that relates fluorescence to fraction of unfolded protein as a function of temperature. For the ERR-α screen, data were collected from 30 to 80° C. at 1° C. intervals and the protein melted under the screening conditions with a characteristic melting temperature, Tm, of 52.1° C. Hits were identified from the screen by measuring an increase in the melting temperature of the protein.
In order to estimate binding affinities, it was taken into account that the oligomeric state of ERR-α, which is a dimer (N2), and that of a single ligand (Lf) can interact per monomer subunit with equal affinity. The melting curve for such a system is described by the following three equilibria: [formula] The first equilibrium describes the denaturation of ERR-α dimers; the second equilibrium describes the dissociation of the first ligand from the single ligand occupied ERR-α dimers (N2L); and the third equilibrium describes the dissociation of the second ligand from the fully occupied ERR-α dimers (N2L2).
Following the derivations of Brandts and Lin (Biochemistry, 29, 6967, 1990) the dissociation constants for the ligands (Kd1^t^m) can be determined at T=Tm for any ligand concentration Lt by solving numerically the conservation of mass equations: [formula] and Ku is in the unfolding equilibrium constant for ERR-α dimers that is calculated from the melting curve of the protein in the absence of ligand as described by Pantoliano et al. (J. Biomolecular Screening, 6, 429, 2001) and Bowie & Sauer (Biochemistry, 28, 7139, 1989).
To compare dissociation constants at a common reference temperature, Tref, the following equation was used: [formula] where • Kd^ref=is the dissociation constant of the ligand at a reference temperature Tref • ΔHb^ref=is the binding enthalpy of the ligand to the protein at a reference temperature Tref. […]

[2] = target: T2, ERR-α (Homo sapiens, UniProt P11474); test: 2-Hybrid cell based luciferase reporter assay (pBIND-Gal4-ERR-α / pACT-SRC2) in HEK293E cells; conditions: 24 hours compound treatment, firefly luciferase normalized to Renilla, average from three independent experiments
T2 construct: expressed in transfected cells; host or cells: HEK293E
T2 sequence (P11474 1-423): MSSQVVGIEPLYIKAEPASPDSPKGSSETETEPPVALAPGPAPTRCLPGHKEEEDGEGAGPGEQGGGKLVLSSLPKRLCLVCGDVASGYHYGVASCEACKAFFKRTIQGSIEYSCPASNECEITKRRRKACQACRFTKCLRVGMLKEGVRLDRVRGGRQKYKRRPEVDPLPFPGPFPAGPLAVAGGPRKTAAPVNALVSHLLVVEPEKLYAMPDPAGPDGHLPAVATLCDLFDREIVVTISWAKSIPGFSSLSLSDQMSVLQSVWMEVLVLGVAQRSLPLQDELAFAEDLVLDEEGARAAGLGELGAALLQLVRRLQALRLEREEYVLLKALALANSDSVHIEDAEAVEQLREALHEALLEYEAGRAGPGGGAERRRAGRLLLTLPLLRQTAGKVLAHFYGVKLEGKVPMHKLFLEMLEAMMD
Description: A cell based reporter assay was also used to determine the functional response of the ERR-α hits. Transfections were performed in HEK293E cells that were maintained in DMEM supplemented in glutamine and 10% FBS. Co-transfections of 4 μg of a luciferase reporter plasmid and 4 μg of each pBIND-Gal4-ERR-α and pACT-SRC2 plasmids per T-75 flask were done using Lipofectamine as per manufacturers instructions. Twenty-four hours post-transfection, the cells were seeded in 96-well plates at density of 50,000 cells per well in assay media (DMEM phenol free, 5% charcoal stripped FBS). The cells were allowed to adhere to the bottom of the wells (approximately 5 hours post-seeding) and the compounds were dosed and the final concentration of DMSO was kept below 0.3%. After 24 hours of compound treatment cells were lysed and treated with the Promega Dual-Glo system. Firefly Luciferase activity was read using a luminescence plate reader, and data were normalized against Renilla luciferase activity. Data were fitted using subroutines available from GraphPad. The reported IC50 values shown in the table below are the average from three independent experiments for the compounds tested.

| Kd [1] | IC50 [2] | SMILES |
| --- | --- | --- |
| 26000 nM | 26000 nM | N#C/C(=C\c1ccc(Oc2ccccc2)cc1)c1nn(-c2ccccc2)c(N)c1C#N [Example 5, 5-Amino-3-[1-cyano-2-(4-phenoxy-phenyl)-vinyl]-1-phenyl-1H-pyrazole-4-carbonitrile] |
| 1710 nM | 1710 nM | COc1cc(/C=C(\C#N)c2nn(-c3ccccc3)c(N)c2C#N)ccc1Oc1ccc([N+](=O)[O-])c(C(F)(F)F)c1 [Example 3, 5-Amino-3-{1-cyano-2-[3-methoxy-4-(4-nitro-3-trifluoromethyl-phenoxy)-phenyl]-vinyl}-1-phenyl-1H-pyrazole-4-carbonitrile] |
| 6070 nM | 6070 nM | COc1cc(/C=C(\C#N)c2nn(-c3ccccc3)c(N)c2C#N)ccc1Oc1ccc(C(F)(F)F)cc1[N+](=O)[O-] [Example 1, 5-Amino-3-{1-cyano-2-[3-methoxy-4-(2-nitro-4-trifluoromethyl-phenoxy)-phenyl]vinyl}-1-phenyl-1H-pyrazole-4-carbonitrile] |
| 529 nM | 1000 nM | COc1cc(/C=C2\SC(=O)NC2=O)ccc1Oc1ccc([N+](=O)[O-])c(C(F)(F)F)c1 [Example 11, 5-[3-Methoxy-4-(4-nitro-3-trifluoromethyl-phenoxy)-benzylidene]-thiazolidine-2,4-dione] |
| 114 nM | 1500 nM | COC(=O)c1ccc(Oc2ccc(/C=C3\SC(=O)NC3=O)cc2OC)cc1C(F)(F)F [Example 15, 4-[4-(2,4-Dioxo-thiazolidin-5-ylidenemethyl)-2-methoxy-phenoxy]-2-trifluoromethyl-benzoic acid methyl ester] |
| 463 nM | 50 nM | COc1cc(/C=C2\SC(=O)NC2=O)ccc1Oc1ccc(C#N)c(C(F)(F)F)c1 [Example 12, 4-[4-(2,4-Dioxo-thiazolidin-5-ylidenemethyl)-2-methoxy-phenoxy]-2-trifluoromethyl-benzonitrile] |
| 2540 nM | – | CCOC(=O)/C(C#N)=C/c1ccc(Oc2ccc(C(F)(F)F)cc2[N+](=O)[O-])c(OC)c1 [Example 24, 2-Cyano-3-[3-methoxy-4-(2-nitro-4-trifluoromethyl-phenoxy)-phenyl]-acrylic acid ethyl ester] |
| 7170 nM | – | COc1cc(/C=C(\C#N)c2cccs2)ccc1Oc1ccc(C(F)(F)F)cc1[N+](=O)[O-] [Example 25, 3-[3-Methoxy4-(2-nitro4-trifluoromethyl-phenoxy)-phenyl]-2-thiophen-2-yl-acrylonitrile] |
| 15200 nM | – | COc1cc(/C=C(\C#N)c2nc3ccccc3[nH]2)ccc1Oc1ccc(C(F)(F)F)cc1[N+](=O)[O-] [Example 26, 2-(1H-Benzoimidazol-2-yl)-3-[3-methoxy-4-(2-nitro-4-trifluoromethyl-phenoxy)-phenyl]-acrylonitrile] |
| 69.2 nM | – | COC(=O)c1ccc(Oc2ccc(/C=C3\SC(=O)NC3=O)cc2OC)c([N+](=O)[O-])c1 [Example 18, 4-[4-(2,4-Dioxo-thiazolidin-5-ylidenemethyl)-2-methoxy-phenoxy]-3-nitro-benzoic acid methyl ester] |
| > 200000 nM | – | O=C1NC(=O)/C(=C\c2cccc(Oc3cccc(Cl)c3)c2)S1 [Example 21, 5-[3-(3-Chloro-phenoxy)-benzylidene]-thiazolidine-2,4-dione] |
| 359 nM | 500 nM | COc1cc(/C=C2\SC(N)=NC2=O)ccc1Oc1ccc(C(F)(F)F)cc1[N+](=O)[O-] [Example 7, 2-Amino-5-[3-methoxy-4-(2-nitro-4-trifluoromethyl-phenoxy)-benzylidene]-thiazol-4-one] |
| 17700 nM | – | COc1cc(C=C2C(=O)c3ccccc3C2=O)ccc1OCc1cccc(F)c1 [Example 40, 2-[4-(3-Fluoro-benzyloxy)-3-methoxy-benzylidene]-indan-1,3-dione] |
| 1430 nM | 1430 nM | COc1cc(/C=C(\C#N)c2nn(-c3ccccc3)c(N)c2C#N)ccc1Oc1ccc(C#N)c(C(F)(F)F)c1 [Example 4, 5-Amino-3-{1-cyano-2-[4-(4-cyano-3-trifluoromethyl-phenoxy)-3-methoxy-phenyl]-vinyl}-1-phenyl-1H-pyrazole-4-carbonitrile] |
| 234 nM | – | COc1cc(/C=C2\SC(=O)NC2=O)ccc1Oc1ccc(C(F)(F)F)cc1[N+](=O)[O-] [Example 10, 5-[3-Methoxy-4-(2-nitro-4-trifluoromethyl-phenoxy)-benzylidene]-thiazolidine-2,4-dione] |
| 20300 nM | – | CCN1C(=O)/C(=C\c2ccc(Oc3ccc(C(F)(F)F)cc3[N+](=O)[O-])c(OC)c2)SC1=S [Example 36, 3-Ethyl-5-[3-methoxy-4-(2-nitro-4-trifluoromethyl-phenoxy)-benzylidene]-2-thioxo-thiazolidin-4-one] |
| 3530 nM | – | COc1ccc(Oc2ccc(/C=C3\SC(=O)NC3=O)cc2)cc1 [Example 16, 5-[4-(4-Methoxy-phenoxy)-benzylidene]-thiazolidine-2,4-dione] |
| 24700 nM | – | COc1ccc(Oc2ccc(C=C3SC(N)=NC3=O)cc2)cc1 [Example 9, 2-Amino-5-[4-(4-methoxy-phenoxy)-benzylidene]-thiazol-4-one] |
| 4860 nM | – | CCOC(=O)CN1C(=O)S/C(=C\c2ccc(Oc3ccc(C(F)(F)F)cc3[N+](=O)[O-])c(OC)c2)C1=O [Example 17, {5-[3-Methoxy-4-(2-nitro-4-trifluoromethyl-phenoxy)-benzylidene]-2,4-dioxo-thiazolidin-3-yl}-acetic acid ethyl ester] |
| 1160 nM | – | COc1cc(/C=C2\C(=O)N(c3ccccc3)N=C2C)ccc1Oc1ccc(C(F)(F)F)cc1[N+](=O)[O-] [Example 30, 4-[3-Methoxy-4-(2-nitro-4-trifluoromethyl-phenoxy)-benzylidene]-5-methyl-2-phenyl-2,4-dihydro-pyrazol-3-one] |
